Square brackets hold non-standard residues; d marks the D form. Peptide text beside a SMILES is read from it. * marks the point of attachment. pGlu = O=C1CC[C@@H](C(=O)O)N1; Cbz = O=C(OCc1ccccc1)*; PhAc = O=C(Cc1ccccc1)*
System: spontaneously hypertensive rates (SHR rats)
Experiment: Measurement of change in blood pressure (systolic, indirect, conscious rats) after one oral dose
Assay type: in vivo, rat
Conditions: for Δ Blood Pressure (systolic): lowest value minus value before administration; for Systolic Blood Pressure, Lowest Value: after administration
Description: The antihypertensive activities of the amino acid derivatives as prepared above were determined.
As subject animals, there were used 5 spontaneously hypertensive rates (SHR rats) which had been sufficiently trained and confirmed to be hypertensive (mode, the body weight of 400 g) per a sample.
As an instrument for measuring the blood pressure there was used Programmed Electro-Sphygmomanometer PE-300 (Narco Co., U.S.A.), and the blood pressure was indirectly measured on conscious rats.
An aqueous solution of a sample (0.05 m mole/kg) was once force-fed into the stomach by means of a […] probe. As a control, the water as deionized was fed to the same animals as above.

[1] = SHR rats, 5 per sample, before single force-feeding into the stomach of 0.05 m mole/kg aqueous solution
[2] = SHR rats, single force-feeding into the stomach, 0.05 m mole/kg
[3] = second table (Examples 25-43), before administration

| Molecule | Systolic Blood Pressure, Value Before Administration [1] | Hours after administration (of lowest systolic blood pressure value) [2] | Systolic Blood Pressure, Lowest value after administration [2] | Δ Blood Pressure (systolic) [2] | Hrs. After Admin. (of lowest systolic blood pressure value) (second table (Examples 25-43)) | Systolic Blood Pressure, Lowest Value (second table (Examples 25-43)) | Systolic Blood Pressure, Value Before Administration [3] | Δ Blood Pressure (systolic) (second table (Examples 25-43)) |
| --- | --- | --- | --- | --- | --- | --- | --- | --- |
| N-benzylsulfonyl-L-alanyl-L-prolyl-L-proline L-arginine salt [Example 11] | 202 mm Hg | 8 h | 174 mm Hg | -28 mm Hg | – | – | – | – |
| CCOC(=O)N[C@@H](Cc1ccccc1)C(=O)N1CCC[C@H]1C(=O)N1CCC[C@H]1C(=O)O.[Na] [Example 31, N--ethoxycarbonyl-L-phenylalanyl-L-prolyl-L-proline sodium salt] | – | – | – | – | 24 h | 199 | 216 | -17 |
| CCOC(=O)N[C@@H](CO)C(=O)N1CCC[C@H]1C(=O)N1CCC[C@H]1C(=O)O [Example 35, N--Ethoxycarbonyl-L-seryl-L-prolyl-L-proline] | – | – | – | – | 8 h | 195 | 220 | -25 |
| CCS(=O)(=O)NCC(=O)N1CCC[C@H]1C(=O)N1CCC[C@H]1C(=O)O [Example 39, N--ethanesulfonyl-glycyl-L-prolyl-L-proline] | – | – | – | – | 8 h | 215 | 232 | -18 |
| C[C@H](NC(=O)Cc1ccccc1)C(=O)N1CCC[C@H]1C(=O)N1CCC[C@H]1C(=O)O [Example 14, N-phenylacetyl-L-alanyl-L-prolyl-L-proline] (PhAc-Ala-Pro-Pro-OH) | – | – | 175 mm Hg | -24 mm Hg | – | – | – | – |
| C[C@H](NC(=O)c1ccccn1)C(=O)N1CCC[C@H]1C(=O)N1CCC[C@H]1C(=O)O [Example 5, N-picolinoyl-L-alanyl-L-prolyl-L-proline] | – | – | 175 mm Hg | -22 mm Hg | – | – | – | – |
| C[C@H](NC(=O)[C@@H]1CCC(=O)N1)C(=O)N1CCC[C@H]1C(=O)N1CCC[C@H]1C(=O)O [Example 21, L-pyroglutamyl-L-alanyl-L-prolyl-L-proline] ([pGlu]APP-OH) | – | – | 190 mm Hg | -29 mm Hg | – | – | – | – |
| N-phenylcarbamoyl-L-alanyl-L-prolyl-L-proline L-arginine salt [Example 17] | 218 mm Hg | 24 h | 203 mm Hg | -15 mm Hg | – | – | – | – |
| CCOC(=O)NCC(=O)N1CCC[C@H]1C(=O)N1CCC[C@H]1C(=O)O.[Na] [Example 32, N--ethoxycarbonyl-glycyl-L-prolyl-L-proline sodium salt] | – | – | – | – | 8 h | 193 | 215 | -22 |
| C[C@H](NC(=O)OCc1ccccc1)C(=O)N1CCC[C@H]1C(=O)N1CCC[C@H]1C(=O)O.NC(N)=NCCC[C@H](N)C(=O)O [Example 15, N-benzyloxycarbonyl-L-alanly-L-prolyl-L-proline L-arginine salt] (Cbz-Ala-Pro-Pro-OH) | 205 mm Hg | 4 h | 172 mm Hg | -33 mm Hg | – | – | – | – |

Source: US4719200A, “Amino acid derivatives and antihypertensive drugs containing the same” (Ajinomoto Co., Inc., priority 1984, dated 1988)
